# What was measured:
# MDA-MB-231 = assay: MTT cytotoxicity assay, MDA-MB-231; type: cell-based, human; settings: for IC50: mean ± SD
# Experimental: (§1) Three cancer cell lines (MDA-MB-231, HCT116 and HeLa; i.e., human breast cancer cells, human colorectal cancer cells, and human cervical cancer cells, respectively), and one non-malignant fibroblast MRC-5 cell line (control) were used in this study. The American Type Cell Collection (ATCC, Manassas, VA, USA) provided all examined cell lines. The cells were grown in a complete medium made up of high-glucose DMEM media supplemented with 10% fetal bovine serum and […] L-glutamine (both from Sigma-Aldrich, USA). The cells were cultured in 25 cc flasks (Thermo Fischer Scientific, Waltham, MA, USA) at 37 °C with 100% humidity in a 5% CO2 atmosphere.
# (§2) The MTT test was used to assess the cytotoxicity of compounds 1–14 [44]. The cytotoxicity of naproxen was also investigated due to its clinical use and structural similarity. Throughout the exponential development period, cells were taken from culture flasks and counted, and 5 × 10^3 cells/well were planted into 96-well culture plates. Following that, the cell lines were treated with varying doses of the investigated chemicals (1–14), naproxen ([…]), and fresh complete media as a control. All evaluated cells were incubated for 24, 48, and 72 h at 37 °C in an environment containing 5% CO2 and 100% humidity. Following incubation, each well’s culture media was taken out, each well received an addition of MTT solution at a final concentration of 0.5 mg/mL, and the cells were left to incubate for an additional four hours. The MTT solution was then withdrawn carefully, and the formazan crystals were dissolved in DMSO. After shaking the plates for 10 min, absorbance at 595 nm was measured using a multiplate reader (Zenyth 3100, Anthos Labtec Instruments, Salzburg, Austria). All concentrations of the tested compounds were performed in three separate wells of the microtiter plates and in three separate experiments. The results were reported as a ratio to the control value, untreated cells. IC50 values were also determined using Microsoft Office Excel 2021. The percentage of viable cells was estimated by dividing the readout absorbance value in the wells containing treated cells by the average absorbance value measured in the wells containing untreated cells, and multiplying the result by 100 [44]. % of the viable cells = ((absorbance of treated cell-absorbance of blank)/(absorbance of untreated cell-absorbance of blank)) × 100(3)
# healthy male rats = assay: Acute oral toxicity assessment (OECD Guidelines No. 423); type: in vivo, rat; settings: single per os dose 10 mg/kg, sacrifice after 14 days, (absolute organ weight × 100%)/body weight
# Experimental: The acute oral toxicity was assessed in healthy male rats (n = 24, three rats per group, body weight 180–200 g) according to a previously established protocol and the OECD Guidelines No. 423 [37, 38].
# Animals were randomly assigned to the following groups: control group—rats that received single dose of 1% DMSO and experimental groups—rats that received compounds 8–14 per os in the single dose of 10 mg/kg dissolved in 1% DMSO. All rats were fasted prior to administration of compounds and during 3 h following the treatment.
# Afterwards, rats were kept in single cages and observed once daily during 14 days for clinical signs of toxicity. All behavioral changes and any signs of toxicity were recorded (fur and skin, urination (color), feces consistency, eyes, salivation, any alterations in behavior pattern). Additionally, food and water intake and the body weight were measured daily over 14 days. After accomplishing the monitoring period, rats were sacrificed, and organ weight (liver, kidney, stomach, and heart) was recorded. Relative organ weight was calculated as follows: (absolute organ weight × 100%)/body weight of rat on the day of sacrifice(1)
# HeLa = assay: MTT cytotoxicity assay, HeLa; type: cell-based, human; settings: for IC50: mean ± SD
# Experimental: as §1, §2
# COX-2 = molecular target: T1, COX-2 (Homo sapiens, UniProt P35354); assay: Fluorometric COX-2 inhibitor screening kit; type: biochemical; settings: mean of two measurements with standard error, read-out: COX-2 Percent of Inhibition
# T1 construct: purchased Abcam
# T1 sequence (P35354 18-604): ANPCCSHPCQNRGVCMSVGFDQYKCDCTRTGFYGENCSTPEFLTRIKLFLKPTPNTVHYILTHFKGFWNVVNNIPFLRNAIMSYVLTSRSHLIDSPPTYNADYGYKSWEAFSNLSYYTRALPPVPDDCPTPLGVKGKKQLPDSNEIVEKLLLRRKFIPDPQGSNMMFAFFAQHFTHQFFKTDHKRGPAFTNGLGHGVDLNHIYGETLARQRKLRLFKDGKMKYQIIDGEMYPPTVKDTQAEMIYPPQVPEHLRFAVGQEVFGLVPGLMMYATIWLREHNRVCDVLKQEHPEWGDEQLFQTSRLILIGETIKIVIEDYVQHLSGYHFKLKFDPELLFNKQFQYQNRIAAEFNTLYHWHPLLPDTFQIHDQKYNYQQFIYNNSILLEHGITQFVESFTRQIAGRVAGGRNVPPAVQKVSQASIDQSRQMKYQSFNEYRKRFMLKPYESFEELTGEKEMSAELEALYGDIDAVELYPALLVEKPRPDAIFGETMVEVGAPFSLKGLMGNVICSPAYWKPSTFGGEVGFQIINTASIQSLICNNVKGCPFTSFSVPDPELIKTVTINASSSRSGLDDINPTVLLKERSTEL
# Experimental: The COX-2 and 5-LOX inhibitory potential of the tested compounds was evaluated using a fluorometric COX-2 and 5-LOX inhibitor screening kit (Abcam, Cambridge, UK). These tests are based on determining the presence of prostaglandin G2 (a product of COX enzyme activity) or an intermediate generated by the enzyme 5-LOX, using fluorometric detection. The mentioned experiments were performed according to the manufacturer’s instructions.
# For the determination of COX-2 inhibitory potential of tested compounds, stock solutions (5 mM in DMSO) were diluted with the same solvent (test solutions). The test solutions were further diluted with COX assay buffer by mixing 2 µL of the corresponding test solution and 8 µL of COX assay buffer. For the preparation of inhibitory control (IC), celecoxib (2 µL) and COX assay buffer (8 µL) were mixed. Solvent control (SC) was prepared by mixing DMSO (2 µL) and the COX assay buffer (8 µL), enzyme control (EC) was 10 µL of COX assay buffer, while the samples (S) were 10 µL of diluted test solutions. IC, SC, EC, and S were transferred into corresponding wells. For the determination of 5-LOX inhibitory potential of tested compounds, stock solutions of the same concentration (5 mM) were prepared in DMSO. These solutions were further diluted with the same solvent to obtain the test solutions, which were added into the appropriate wells (2 µL). EC, SC, and IC were prepared by adding 2 µL of the assay buffer, DMSO, and zileuton into corresponding wells, respectively.
# The fluorescence of the samples was measured kinetically at 25 °C (COX-2: Ex/Em = 535/587 nm, during 10 min; 5-LOX: Ek/Em = 500/536 nm during 20 min) using a Synergi LX multi-mode microplate reader (BioTek, Shoreline, WA, USA).
# [1] = Homo sapiens, MDA-MB-231, 24 h, 24 h
# [2] = Homo sapiens, MDA-MB-231, 48 h, 48 h
# [3] = Homo sapiens, MDA-MB-231, 72 h, 72 h
SMILES,IC50 (MDA-MB-231; [1]) [µM],IC50 (MDA-MB-231; [2]) [µM],IC50 (MDA-MB-231; [3]) [µM],"Relative organ weight, Heart (healthy male rats)","Relative organ weight, Kidney (healthy male rats)","Relative organ weight, Liver (healthy male rats)","Relative organ weight, Stomach (healthy male rats)",Cytotoxic effect against HeLa cells (in words) (HeLa),"IC50 (HeLa; Homo sapiens, HeLa, 24 h) [µM]","IC50 (HeLa; Homo sapiens, HeLa, 48 h) [µM]","IC50 (HeLa; Homo sapiens, HeLa, 72 h) [µM]",inhibition at 10 µM (COX-2) [%],Cytotoxic effect against the MDA-MB-231 cell line (in words) (MDA-MB-231),IC50 (MDA-MB-231; 72 h) [µM],IC50 (HeLa; 72 h) [µM]
"COc1ccc2cc([C@H](C)C(=O)NC(=S)Nc3ccccc3F)ccc2c1 [Compound 12, (S)-N-((2-fluorophenyl)carbamothioyl)-2-(6-methoxynaphthalen-2-yl)propanamide]",> 200,> 200,> 200,0.35 ± 0.03,0.32 ± 0.04,2.76 ± 0.36,0.59 ± 0.05,moderate cytotoxic effect,135 ± 16.8,103 ± 9.5,72.8 ± 6.9,13.8 ± 6.41,–,–,–
"COc1ccc2cc([C@H](C)C(=O)NC(=S)Nc3ccccc3C)ccc2c1 [Compound 10, (S)-2-(6-methoxynaphthalen-2-yl)-N-(o-tolylcarbamothioyl)propanamide]",101 ± 11.2,70.5 ± 8.3,42 ± 9,0.34 ±0.04,0.31 ± 0.04,2.67 ± 0.15,0.58 ± 0.04,moderate cytotoxic effect,> 200,111 ± 8.3,85.3 ± 9.1,12.6 ± 4.99,moderate cytotoxic effect,42.2 ± 9.8,–
"COc1ccc2cc([C@H](C)C(=O)NC(=S)Nc3ccc(C)cc3)ccc2c1 [Compound 9, (S)-2-(6-methoxynaphthalen-2-yl)-N-(p-tolylcarbamothioyl)propanamide]",> 200,> 200,112 ± 18.1,0.29 ± 0.03,0.29 ± 0.03,3.01 ± 0.27,0.56 ± 0.03,–,> 200,> 200,120 ± 8.7,26.8 ± 6.07,–,–,–
"COC(=O)[C@H](Cc1c[nH]c2ccccc12)NC(=S)NC(=O)[C@@H](C)c1ccc2cc(OC)ccc2c1 [Compound 14, Methyl (((S)-2-(6-methoxynaphthalen-2-yl)propanoyl)carbamothioyl)tryptophanate]",> 200,> 200,117 ± 15.3,0.31 ± 0.02,0.29 ± 0.04,2.03 ± 0.42,0.53 ± 0.04,–,> 200,151 ± 14.2,110 ± 11.5,29.8 ± 12.1,–,–,–
"COC(=O)[C@H](Cc1ccccc1)NC(=S)NC(=O)[C@@H](C)c1ccc2cc(OC)ccc2c1 [Compound 13, Methyl (((S)-2-(6-methoxynaphthalen-2-yl)propanoyl)carbamothioyl)phenylalaninate]",> 200,> 200,99.5 ± 8.2,0.30 ± 0.04,0.28 ± 0.06,3.09 ± 0.27,0.50 ± 0.06,–,> 200,> 200,> 200,23.1 ± 9.83,–,–,–
"COc1ccc2cc([C@H](C)C(=O)NC(=S)Nc3ccccc3)ccc2c1 [Compound 8, (S)-2-(6-methoxynaphthalen-2-yl)-N-(phenylcarbamothioyl)propanamide]",> 200,> 200,> 200,0.31 ± 0.01,0.32 ± 0.02,2.65 ± 0.15,0.51 ± 0.06,strong cytotoxic effects,> 140,97.6 ± 10.9,9 ± 2,36.2 ± 16.4,–,–,9.1 ± 2.5
"COc1ccc2cc([C@H](C)C(=O)NC(=S)Nc3ccccc3OC)ccc2c1 [Compound 11, (S)-2-(6-methoxynaphthalen-2-yl)-N-((2-methoxyphenyl)carbamothioyl)propanamide]",> 200,> 200,> 200,0.32 ± 0.02,0.33 ± 0.05,2.83 ± 0.20,0.54 ± 0.05,–,> 200,> 200,> 200,16.2 ± 13.7,–,–,–

# Source: paper PMC10820527, “Synthesis, Characterization, and Investigation of Anti-Inflammatory and Cytotoxic Activities of Novel Thiourea Derivatives of Naproxen” (Pharmaceutics, 2023)
